Key:
Assay in all cases: relative viability (nuclei count vs DMSO), 5 days (fraction); higher = more cells survive
Lapatinib + Alpelisib = compound: CS(=O)(=O)CCNCc1ccc(-c2ccc3ncnc(Nc4ccc(OCc5cccc(F)c5)c(Cl)c4)c3c2)o1 [Lapatinib] + Cc1nc(NC(=O)N2CCC[C@H]2C(N)=O)sc1-c1ccnc(C(C)(C)C(F)(F)F)c1 [Alpelisib] (partner 2 µM)
In short: (§1)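 Lung cancer cell lines, seeded in 1536-well plates, were treated the following day by pin tool with a single drug or with five library-drug doses (not always all listed) in √10 steps on top of a fixed anchor-drug dose. Cells were fixed and nuclei stained in one step after 5 days, and nuclei were counted. Relative viability is the nuclei count for treated wells divided by that for vehicle wells, reported as medians of duplicate plates.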

Wnt-C59 + Navitoclax = compound: CC1=NC=CC(=C1)C2=CC=C(C=C2)CC(=O)NC3=CC=C(C=C3)C4=CN=CC=C4 [Wnt-C59] + CC1(C)CCC(c2ccc(Cl)cc2)=C(CN2CCN(c3ccc(C(=O)NS(=O)(=O)c4ccc(N[C@H](CCN5CCOCC5)CSc5ccccc5)c(S(=O)(=O)C(F)(F)F)c4)cc3)CC2)C1 [Navitoclax] (partner 0.5 µM)
In short: as §1

Lapatinib + AZD7762 = compound: CS(=O)(=O)CCNCc1ccc(-c2ccc3ncnc(Nc4ccc(OCc5cccc(F)c5)c(Cl)c4)c3c2)o1 [Lapatinib] + NC(=O)Nc1cc(-c2cccc(F)c2)sc1C(=O)N[C@H]1CCCNC1 [AZD7762] (partner 0.2 µM)
In short: as §1

Lapatinib + Foretinib = compound: CS(=O)(=O)CCNCc1ccc(-c2ccc3ncnc(Nc4ccc(OCc5cccc(F)c5)c(Cl)c4)c3c2)o1 [Lapatinib] + COc1cc2c(Oc3ccc(NC(=O)C4(C(=O)Nc5ccc(F)cc5)CC4)cc3F)ccnc2cc1OCCCN1CCOCC1 [Foretinib] (partner 0.25 µM)
In short: as §1

Cell Line | relative viability (Lapatinib + Alpelisib; first compound 0.06325 µM) | relative viability (Lapatinib + Alpelisib; first compound 0.2 µM) | relative viability (Lapatinib + Alpelisib; first compound 0.6325 µM) | relative viability (Lapatinib + Alpelisib; first compound 2 µM) | relative viability (Wnt-C59 + Navitoclax; first compound 0.001 µM) | relative viability (Wnt-C59 + Navitoclax; first compound 0.01 µM) | relative viability (Wnt-C59 + Navitoclax; first compound 0.03162 µM) | relative viability (Wnt-C59 + Navitoclax; first compound 0.1 µM) | relative viability (Lapatinib + AZD7762; first compound 0.06325 µM) | relative viability (Lapatinib + AZD7762; first compound 0.2 µM) | relative viability (Lapatinib + AZD7762; first compound 0.6325 µM) | relative viability (Lapatinib + AZD7762; first compound 2 µM) | relative viability (Lapatinib + Foretinib; first compound 0.02 µM) | relative viability (Lapatinib + Foretinib; first compound 0.06325 µM) | relative viability (Lapatinib + Foretinib; first compound 0.2 µM) | relative viability (Lapatinib + Foretinib; first compound 0.6325 µM) | relative viability (Lapatinib + Foretinib; first compound 2 µM) | relative viability (Lapatinib + Alpelisib; first compound 0.02 µM) | relative viability (Lapatinib + AZD7762; first compound 0.02 µM)
HOP-62 | 0.618 | 0.861 | 1.14 | 0.856 | 1.05 | 1.04 | 0.98 | 0.903 | 0.526 | 0.669 | 0.501 | 0.568 | 1.14 | 1.16 | 1.03 | 1.09 | 1.13 |  | 
NCI-H1623 |  |  |  |  |  |  |  |  |  |  |  |  | 0.702 | 0.637 | 0.634 | 0.785 | 0.277 |  | 
NCI-H2087 | 1.06 | 1.21 | 1.01 | 0.931 | 1.03 | 0.981 | 1.01 | 0.93 | 1.47 | 1.17 | 1.36 | 1.25 |  | 0.942 | 1.17 | 0.994 | 0.962 | 1.12 | 1.5
NCI-H441 | 0.65 | 0.68 | 0.617 | 0.799 | 0.709 | 1.06 | 0.743 | 0.517 |  | 1.15 | 0.856 | 1.14 |  | 0.931 | 1.01 | 0.822 | 1.1 |  | 1.17
IA-LM | 0.66 | 0.76 | 0.763 | 0.792 | 0.851 | 0.751 | 0.718 | 0.751 |  |  |  |  | 1.08 | 1.13 | 1.36 | 1.03 | 1.16 | 0.653 | 
NCI-H1299 | 1.08 | 1.11 | 1.03 | 1.04 | 1.03 | 1.06 | 1.02 | 1.02 |  |  |  |  | 1.1 | 0.885 | 1.12 | 1.1 | 1.05 | 1.06 | 
LCLC-103H | 0.882 | 0.924 | 0.848 | 0.92 |  |  |  |  | 0.575 | 0.791 | 0.836 | 0.727 | 0.849 | 0.744 | 0.753 | 0.835 | 0.712 |  | 0.61
NCI-H1650 |  |  |  |  | 1.35 | 1.41 | 1.27 | 1.1 |  |  |  |  | 1 | 1.08 | 1.03 | 1.01 | 0.684 |  | 
SK-LU-1 | 0.953 | 0.99 | 1.1 | 0.977 | 0.893 | 0.832 | 1.02 | 0.893 |  |  |  |  | 0.773 | 0.789 | 0.857 | 0.8 | 0.883 |  | 
COR-L 105 | 0.765 | 1.03 | 0.804 | 0.294 | 0.905 | 0.733 | 0.878 | 1.02 |  |  |  |  | 0.987 | 0.928 | 0.689 | 0.491 | 0.582 | 0.872 | 
NCI-H358 |  | 0.574 | 0.414 | 0.336 |  |  |  |  | 0.364 | 0.379 | 0.388 | 0.282 | 0.613 | 0.33 | 0.422 | 0.317 | 0.17 | 0.741 | 0.459
SW 1573 | 0.648 | 0.635 | 0.821 | 0.843 | 1.03 | 1.04 | 1.09 | 0.989 |  |  |  |  | 1.04 | 0.601 | 0.86 | 0.922 | 0.886 | 0.705 | 
NCI-H2228 | 0.688 | 0.811 | 0.907 | 0.59 | 0.957 | 0.87 | 0.68 | 1.05 |  |  |  |  | 0.837 | 0.714 | 0.96 | 0.826 | 0.701 | 0.675 | 
NCI-H520 | 0.805 | 0.912 | 1.02 | 0.807 | 1.11 | 1.13 | 1.11 | 1.05 |  |  |  |  | 0.891 | 0.672 | 0.855 | 1.01 | 0.67 | 0.961 | 
ABC-1 | 1.06 | 1.23 | 0.88 | 0.838 |  |  |  |  | 0.73 | 0.821 | 0.774 | 1.07 | 0.949 | 0.912 | 1.16 | 1.32 | 0.964 |  | 
HCC-44 | 0.621 | 0.75 | 0.873 | 0.535 | 1.01 | 0.904 | 1.02 | 0.954 | 1.03 | 1.02 | 1.01 | 0.893 |  |  |  |  |  | 0.689 | 0.984
NCI-H2023 | 0.576 | 0.528 | 0.553 | 0.378 | 1 | 0.993 | 1.03 | 0.944 |  |  |  |  |  |  | 0.685 | 0.437 | 0.357 | 0.53 | 
NCI-H650 | 1.04 | 0.998 | 0.953 | 1.2 |  |  |  |  | 0.735 | 1.03 | 1.04 | 0.977 |  | 0.94 | 0.989 | 1.06 | 0.979 |  | 
COR-L23 | 0.602 | 0.871 | 0.752 | 0.688 | 1.13 | 1.02 | 1.17 | 0.944 |  |  |  |  | 0.949 | 0.872 | 0.918 | 0.971 | 0.891 | 0.694 | 
A549 | 0.528 | 0.755 | 0.665 | 0.516 | 1.23 | 1.31 | 1.29 | 1.12 |  |  |  |  | 0.952 | 0.872 | 1.04 | 0.918 | 0.877 | 0.609 | 
NCI-H2342 |  |  |  |  |  |  |  |  | 0.408 | 0.381 | 0.447 | 0.394 | 1.09 | 1.01 | 0.946 | 0.975 | 0.712 |  | 0.421
NCI-H1792 | 0.633 | 0.75 | 0.666 | 0.576 | 0.671 | 0.669 | 0.695 | 0.701 |  | 0.568 | 0.665 | 0.365 |  |  |  |  |  | 0.723 | 
NCI-H661 | 0.637 | 0.468 | 0.45 | 0.36 |  |  |  |  |  |  |  |  | 0.972 | 0.926 | 0.856 | 0.666 | 0.62 | 0.646 | 
SW 900 |  |  |  |  |  |  |  |  | 0.549 | 0.549 | 0.591 | 0.466 |  | 0.808 | 0.659 | 0.781 | 0.734 |  | 
NCI-H1648 |  |  |  |  |  |  |  |  | 0.921 | 0.612 | 0.643 | 0.658 |  |  |  |  |  |  | 
